Laboratory results from ChEMBL document CHEMBL4665765, “Antimalarial activity of tetrahydro-β-carbolines targeting the ATP binding pocket of the Plasmodium falciparum heat shock 90 protein” (Bioorg Med Chem Lett, 2020).

Key:
Plasmodium falciparum [1] = assay: Antimalarial activity against chloroquine-sensitive Plasmodium falciparum 3D7 infected in o-positive erythrocyte assessed as reduction in parasite growth; format: functional, organism-based; conditions: 3D7, Erythrocyte
[2] = Therapeutic index, ratio of EC50 for cytotoxicity against human BJ cells to EC50 for antimalarial activity against Plasmodium falciparum 3D7; format: toxicity, cell-based; conditions: read-out: Ratio EC50
BJ = assay: Cytotoxicity against human BJ cells; format: cell-based
HepG2 = assay: Cytotoxicity against human HepG2 cells assessed as reduction in cell viability incubated for 48 hrs by CCK8 assay; format: cell-based; conditions: HepG2, 48 h
HeLa = assay: Cytotoxicity against human HeLa cells assessed as reduction in cell viability incubated for 48 hrs by CCK8 assay; format: cell-based
Plasmodium falciparum [3] = assay: Antimalarial activity against Plasmodium falciparum 3D7 infected in erythrocytes assessed as reduction in parasite growth incubated for 72 hrs by SYBR green dye based fluorescence assay; format: functional, organism-based; conditions: 3D7, Erythrocyte

| Structure (SMILES) | EC50 (Plasmodium falciparum [1]) | selectivity ratio [2] | EC50 (BJ) | EC50 (HepG2) | EC50 (HeLa) | EC50 (Plasmodium falciparum [3]) |
| --- | --- | --- | --- | --- | --- | --- |
| Oc1ccc(C2NCCc3c2[nH]c2ccc(Cl)cc32)cc1 (stereo unspecified) | 4.45 µM | 5 | > 24 µM |  |  |  |
| Clc1ccc(C2NCCc3c2[nH]c2ccc(Cl)cc32)cc1 (stereo unspecified) | 13.3 µM | 2 | 23 µM |  |  |  |
| Clc1cccc(C2NCCc3c2[nH]c2ccc(Cl)cc32)c1 (stereo unspecified) | 2.53 µM | 9 | 23.6 µM |  |  |  |
| Cc1ccc(C2NCCc3c2[nH]c2ccc(Cl)cc32)cc1 (stereo unspecified) | 17.9 µM | 1 | > 24 µM |  |  |  |
| Oc1ccccc1C1NCCc2c1[nH]c1ccc(Cl)cc21 (stereo unspecified) | 4.35 µM | 4 | 15.7 µM |  |  |  |
| Clc1ccc2[nH]c3c(c2c1)CCNC3c1cccc2ccccc12 (stereo unspecified) | 7.06 µM | 3 | > 24 µM |  |  |  |
| Cc1cccc(C2NCCc3c2[nH]c2ccc(Cl)cc32)c1 (stereo unspecified) | 0.352 µM | 68 | > 24 µM |  |  |  |
| Clc1ccc2[nH]c3c(c2c1)CCNC3c1ccc2ccccc2c1 (stereo unspecified) | 16.6 µM | 1 | 17.2 µM |  |  |  |
| Clc1ccc2[nH]c3c(c2c1)CCNC3C1CCCCC1 (stereo unspecified) | 12.1 µM | 2 | > 24 µM |  |  |  |
| Clc1ccc2[nH]c3c(c2c1)CCNC3c1ccccc1 (stereo unspecified) | 1.67 µM | 14 | > 24 µM |  |  |  |
| CC1NCCc2c1n(C)c1ccc(Cl)cc21 (stereo unspecified) | > 18 µM | 1 | > 24 µM |  |  |  |
| Clc1ccc2[nH]c3c(c2c1)CCNC3Cc1ccccc1 (stereo unspecified) | 10.9 µM | 2 | > 24 µM |  |  |  |
| Clc1ccc2[nH]c3c(c2c1)CCNC3c1ccccc1Cl (stereo unspecified) | 1.94 µM | 12 | > 24 µM |  |  |  |
| CC1NCCc2c1[nH]c1ccc(Cl)cc21 (stereo unspecified) |  |  |  | 160 µM | 1.1 mM | 12.2 µM |
| Oc1cccc(C2NCCc3c2[nH]c2ccc(Cl)cc32)c1 (stereo unspecified) | 7.53 µM | 3 | > 24 µM |  |  |  |
| CCn1c2c(c3cc(Cl)ccc31)CCNC2C (stereo unspecified) | > 18 µM | 1 | > 24 µM |  |  |  |
| Cc1ccccc1C1NCCc2c1[nH]c1ccc(Cl)cc21 (stereo unspecified) | 2.08 µM | 12 | > 24 µM |  |  |  |
